In patent EP0013067A1, “Bicyclic beta-lactam antibacterial agents, their use in pharmaceutical compositions, processes for their preparation and intermediates for use in such processes” (BEECHAM GROUP PLC, priority 1978, dated 1980):
Converted amounts (≈) assume the structure as drawn.

Legend:
Type in all cases: cell-based
[1] = test system: Proteus mirabilis C977; assay: MIC, microtitre using Nutrient broth; conditions: Proteus mirabilis C977; Microtitre using Nutrient broth; inoculum 0.001 ml of an undilute overnight broth culture; unit inferred; read-out: MIC Broth
Source text: (§1) The ninimum inhibitory concentrations (MIC) cf this compound required to inhibit the growth of various bacteria are tabulated balow: […]

[2] = test system: Klebsiella aerogenes A; assay: MIC, microtitre using Nutrient broth; conditions: Klebsiella aerogenes A; Microtitre using Nutrient broth; inoculum 0.001 ml of an undilute overnight broth culture; unit inferred; read-out: MIC Broth
Source text: as §1

[3] = test system: E. coli ESS; assay: MIC, microtitre using Nutrient broth; conditions: Escherichia coli, inoculum 0.001 ml of an undilute overnight broth culture, unit inferred
Source text: as §1

[4] = test system: Pseudomonas aeruginosa A; assay: MIC, microtitre using Nutrient broth; conditions: Pseudomonas aeruginosa; Pseudomanas aeruginosa A; Microtitre using Nutrient broth; inoculum 0.001 ml of an undilute overnight broth culture; unit inferred; read-out: MIC Broth
Source text: as §1

[5] = test system: Enterobacter cloacae N1; assay: MIC, microtitre using Nutrient broth; conditions: Microtitre using Nutrient broth, inoculum 0.001 ml of an undilute overnight broth culture, unit inferred
Source text: as §1

[6] = test system: Proteus morganii I580; assay: MIC, microtitre using Nutrient broth; conditions: Morganella morganii, inoculum 0.001 ml of an undilute overnight broth culture, unit inferred
Source text: as §1

[7] = test system: Shigella sonnei MB 11967; assay: MIC, microtitre using Nutrient broth; conditions: MB11967, inoculum 0.001 ml of an undilute overnight broth culture, unit inferred
Source text: as §1

[8] = test system: Staphylococcus aureus Russell; assay: MIC, microtitre using Nutrient broth; conditions: Staphylococcus aureus Russell; Microtitre using Nutrient broth; inoculum 0.001 ml of an undilute overnight broth culture; unit inferred; read-out: MIC Broth
Source text: as §1

[9] = test system: Escherichia coli 0111; assay: MIC, microtitre using Nutrient broth; conditions: Microtitre using Nutrient broth, inoculum 0.001 ml of an undilute overnight broth culture, unit inferred
Source text: as §1

[10] = test system: Escherichia coli JT 39; assay: MIC, microtitre using Nutrient broth; conditions: JT39; Escherichia coli JT 39; Microtitre using Nutrient broth; inoculum 0.001 ml of an undilute overnight broth culture; unit inferred; read-out: MIC Broth
Source text: as §1

[11] = test system: Serratia marcescens US20; assay: MIC, microtitre using Nutrient broth; conditions: inoculum 0.001 ml of an undilute overnight broth culture, unit inferred
Source text: as §1

[12] = test system: Citrobacter freundii E8; assay: MIC, microtitre using Nutrient broth; conditions: inoculum 0.001 ml of an undilute overnight broth culture, unit inferred
Source text: as §1

[13] = test system: Streptococcus faecalis I; assay: MIC, microtitre using Nutrient broth; conditions: Enterococcus faecalis, inoculum 0.001 ml of an undilute overnight broth culture, unit inferred
Source text: as §1

[14] = test system: Staphylococcus aureus Oxford; assay: MIC, microtitre using Nutrient broth; conditions: Staphylococcus aureus Oxford; Microtitre using Nutrient broth; inoculum 0.001 ml of an undilute overnight broth culture; unit inferred; read-out: MIC Broth
Source text: as §1

[15] = test system: Streptococcus pyogenes CN10; assay: MIC, microtitre using Nutrient broth; conditions: inoculum 0.001 ml of an undilute overnight broth culture, unit inferred
Source text: as §1

[16] = test system: Proteus mirabilis C977; assay: MIC, DST agar + 10% horse blood; conditions: Proteus mirabilis C977; DST agar + 10% horse blood; inoculum 0.001 ml of an undilute overnight broth culture; unit inferred; read-out: MIC Agar
Source text: as §1

[17] = test system: Klebsiella aerogenes A; assay: MIC, DST agar + 10% horse blood; conditions: Klebsiella aerogenes A; DST agar + 10% horse blood; inoculum 0.001 ml of an undilute overnight broth culture; unit inferred; read-out: MIC Agar
Source text: as §1

[18] = test system: E. coli ESS; assay: MIC, DST agar + 10% horse blood; conditions: Escherichia coli, inoculum 0.001 ml of an undilute overnight broth culture, unit inferred
Source text: as §1

[19] = test system: Staphylococcus aureus 1517; assay: MIC, DST agar + 10% horse blood; conditions: Staphylococcus aureus 1517; DST agar + 10% horse blood; inoculum 0.001 ml of an undilute overnight broth culture; unit inferred; read-out: MIC Agar
Source text: as §1

[20] = test system: Pseudomonas aeruginosa A; assay: MIC, DST agar + 10% horse blood; conditions: Pseudomonas aeruginosa, read-out: MIC Agar
Source text: as §1

[21] = test system: Enterobacter cloacae N1; assay: MIC, DST agar + 10% horse blood; conditions: Enterobacter cloacae N1; DST agar + 10% horse blood; inoculum 0.001 ml of an undilute overnight broth culture; unit inferred; read-out: MIC Agar
Source text: as §1

[22] = test system: Proteus morganii I580; assay: MIC, DST agar + 10% horse blood; conditions: Morganella morganii; Proteus morganii I580; DST agar + 10% horse blood; inoculum 0.001 ml of an undilute overnight broth culture; unit inferred; read-out: MIC Agar
Source text: as §1

[23] = test system: Bacillus subtilis A; assay: MIC, DST agar + 10% horse blood; conditions: Bacillus subtilis A; DST agar + 10% horse blood; inoculum 0.001 ml of an undilute overnight broth culture; unit inferred; read-out: MIC Agar
Source text: as §1

[24] = test system: Shigella sonnei MB 11967; assay: MIC, DST agar + 10% horse blood; conditions: MB11967, inoculum 0.001 ml of an undilute overnight broth culture, unit inferred
Source text: as §1

[25] = test system: Proteus rettgeri WM16; assay: MIC, DST agar + 10% horse blood; conditions: Providencia rettgeri; Proteus rettgeri WM16; DST agar + 10% horse blood; inoculum 0.001 ml of an undilute overnight broth culture; unit inferred; read-out: MIC Agar
Source text: as §1

[26] = test system: Salmonella typhimurium CT10; assay: MIC, DST agar + 10% horse blood; conditions: Salmonella enterica, TYPHIMURIUM, read-out: MIC Agar
Source text: as §1

[27] = test system: Staphylococcus aureus Russell; assay: MIC, DST agar + 10% horse blood; conditions: Staphylococcus aureus Russell; DST agar + 10% horse blood; inoculum 0.001 ml of an undilute overnight broth culture; unit inferred; read-out: MIC Agar
Source text: as §1

[28] = test system: Escherichia coli 0111; assay: MIC, DST agar + 10% horse blood; conditions: Escherichia coli, 0111, inoculum 0.001 ml of an undilute overnight broth culture, unit inferred
Source text: as §1

[29] = test system: Escherichia coli JT 39; assay: MIC, DST agar + 10% horse blood; conditions: JT39; Escherichia coli JT 39; DST agar + 10% horse blood; inoculum 0.001 ml of an undilute overnight broth culture; unit inferred; read-out: MIC Agar
Source text: as §1

[30] = test system: Serratia marcescens US20; assay: MIC, DST agar + 10% horse blood; conditions: Serratia marcescens US20; DST agar + 10% horse blood; inoculum 0.001 ml of an undilute overnight broth culture; unit inferred; read-out: MIC Agar
Source text: as §1

[31] = test system: Streptococcus pneumoniae CN33; assay: MIC, DST agar + 10% horse blood; conditions: Streptococcus pneumoniae CN33; DST agar + 10% horse blood; inoculum 0.001 ml of an undilute overnight broth culture; unit inferred; read-out: MIC Agar
Source text: as §1

[32] = test system: Citrobacter freundii E8; assay: MIC, DST agar + 10% horse blood; conditions: Citrobacter freundii, E8, read-out: MIC Agar
Source text: as §1

[33] = test system: Streptococcus faecalis I; assay: MIC, DST agar + 10% horse blood; conditions: Enterococcus faecalis; Streptococcus faecalis I; DST agar + 10% horse blood; inoculum 0.001 ml of an undilute overnight broth culture; unit inferred; read-out: MIC Agar
Source text: as §1

[34] = test system: Proteus vulgaris W091; assay: MIC, DST agar + 10% horse blood; conditions: W091; Proteus vulgaris WO91; DST agar + 10% horse blood; inoculum 0.001 ml of an undilute overnight broth culture; unit inferred; read-out: MIC Agar
Source text: as §1

[35] = test system: Staphylococcus aureus Oxford; assay: MIC, DST agar + 10% horse blood; conditions: Staphylococcus aureus Oxford; DST agar + 10% horse blood; inoculum 0.001 ml of an undilute overnight broth culture; unit inferred; read-out: MIC Agar
Source text: as §1

[36] = test system: Streptococcus pyogenes CN10; assay: MIC, DST agar + 10% horse blood; conditions: Streptococcus pyogenes CN10; DST agar + 10% horse blood; inoculum 0.001 ml of an undilute overnight broth culture; unit inferred; read-out: MIC Agar
Source text: as §1

NCC1=C(C(=O)O)N2C(=O)C[C@H]2S1 [compound 37, 2-Aminomethylpenem-3-carboxylic acid]
MIC [1]: 8 µg/mL (≈ 40 µM) | MIC [2]: 8 µg/mL (≈ 40 µM) | MIC [3]: 4 µg/mL (≈ 20 µM) | MIC [4]: 1 µg/mL (≈ 4.99 µM) | MIC [5]: 16 µg/mL (≈ 79.9 µM) | MIC [6]: 16 µg/mL (≈ 79.9 µM) | MIC [7]: 4 µg/mL (≈ 20 µM) | MIC [8]: 4 µg/mL (≈ 20 µM) | MIC [9]: 8 µg/mL (≈ 40 µM) | MIC [10]: 16 µg/mL (≈ 79.9 µM) | MIC [11]: 16 µg/mL (≈ 79.9 µM) | MIC [12]: 0.5 µg/mL (≈ 2.5 µM) | MIC [13]: 62 µg/mL (≈ 310 µM) | MIC [14]: 2 µg/mL (≈ 9.99 µM) | MIC [15]: 1 µg/mL (≈ 4.99 µM) | MIC [16]: 25 µg/mL | MIC [17]: 50 µg/mL | MIC [18]: 5 µg/mL | MIC [19]: > 50 µg/mL | MIC [20]: 12.5 µg/mL | MIC [21]: 50 µg/mL | MIC [22]: > 50 µg/mL | MIC [23]: 2.5 µg/mL | MIC [24]: 12.5 µg/mL | MIC [25]: > 50 µg/mL | MIC [26]: 12.5 µg/mL | MIC [27]: 5 µg/mL | MIC [28]: 25 µg/mL | MIC [29]: 50 µg/mL | MIC [30]: 25 µg/mL | MIC [31]: 0.5 µg/mL | MIC [32]: 12.5 µg/mL | MIC [33]: > 50 µg/mL | MIC [34]: > 50 µg/mL | MIC [35]: 5 µg/mL | MIC [36]: 1.25 µg/mL
